The target of assay [1] is HLA-A02.01 (Homo sapiens, UniProt P04439, D140Y/D185E/D98H/E176V/E277Q/G131W/G231S/I119V/I121R/I166T/I218V/L300P/L318F/N151K/N90K/P208A/P217A/Q86G/Q94H/R138H/R169H/T345S). Description: Class I MHC peptide binding affinity (displacement of radiolabeled reference peptide). As to conditions: for IC50: allele A02.01, read-out: Observed Affinity (IC50, (nM)); for pKd: EGFR T790M peptides, HLA allele A02.01, read-out: Affinity. An outline of the steps: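 Read-out: radioactivity of reference peptide retained on MHCI, separated from free label by gel-filtration size exclusion. Competing peptides are titrated against the preformed complexes and incubated two days beforehand.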

The target in assay [2] is HLA-A24.02. The description is as above. Further details: species or system human. The conditions noted are these: allele A24.02; read-out: Observed Affinity (IC50; (nM)).
Assay [3] has as its target T1, HLA-A02.01 (Homo sapiens, UniProt P04439, D140Y/D185E/D98H/E176V/E277Q/G131W/G231S/I119V/I121R/I166T/I218V/N151K/N90K/P208A/P217A/Q86G/Q94H/R138H/R169H).
T1 construct: made in house; host or cells: E. coli
The assay can be described thus: Class I MHC peptide binding stability (pMHC-I dissociation, 125I-labeled light chain). The conditions noted are these: for Stability (T1/2 (h)): allele A02.01; for Stability (half-life (hr.)): EGFR T790M peptides, HLA allele A02.01.

Assay [4] has as its target HLA-B07.02 (Homo sapiens, UniProt P01889). The assay can be described thus: Class I MHC peptide binding affinity (displacement of radiolabeled reference peptide). As to conditions: for IC50: Allele B07.02, read-out: Observed Affinity (IC50, (nM)).

pIC50, pKd: −log10 of the molar value. Like-named read-outs stand apart in the source and are kept apart here. Where a SMILES comes first, the peptide text is derived from it.

For `CC[C@H](C)[C@H](NC(=O)[C@@H]1CCCN1C(=O)[C@H](CCCNC(=N)N)NC(=O)[C@H](Cc1c[nH]c2ccccc12)NC(=O)[C@H](CC(N)=O)NC(=O)[C@H](CCSC)NC(=O)CNC(=O)CNC(=O)[C@H](CCSC)NC(=O)[C@@H](N)CS)C(=O)O`, the IC50 in assay [1] stood at 346 nM; in assay [2], 4450 nM. Further, in assay [3], the “Stability (T1/2 (h))” value turned out to be 0.4 h.
The matching figures for `CSCC[C@H](NC(=O)[C@H](CC(C)C)NC(=O)[C@H](CO)NC(=O)[C@H](CC(C)C)NC(=O)[C@@H]1CCCN1C(=O)[C@H](CCC(N)=O)NC(=O)[C@H](CCSC)NC(=O)[C@H](CCC(N)=O)NC(=O)[C@@H](N)Cc1ccccc1)C(=O)O`: 553 nM, 14600 nM and 0.3 h.
Turning to `CC[C@H](C)[C@H](N)C(=O)N[C@@H](CCSC)C(=O)N[C@@H](CCC(N)=O)C(=O)N[C@@H](CC(C)C)C(=O)N[C@@H](CCSC)C(=O)N1CCC[C@H]1C(=O)N[C@@H](Cc1ccccc1)C(=O)NCC(=O)N[C@@H](CS)C(=O)N[C@@H](CC(C)C)C(=O)O`, in assay [1], the pKd is 6.19 and the half-inhibitory concentration (IC50) is 837 nM. For the same compound, the half-maximal inhibitory concentration (IC50) in assay [2] stood at 18100 nM. In assay [3], the “Stability (half-life (hr.))” value is 30.94 min and the “Stability (T1/2 (h))” value was determined as 0.5 h.
`CC[C@H](C)[C@H](NC(=O)[C@H](CO)NC(=O)[C@H](Cc1c[nH]c2ccccc12)NC(=O)[C@H](Cc1c[nH]cn1)NC(=O)[C@H](C)NC(=O)[C@@H]1CCCN1C(=O)[C@H](CCSC)NC(=O)[C@H](CC(C)C)NC(=O)[C@H](CO)NC(=O)[C@@H](N)CC(C)C)C(=O)O`: the figures for the concentration for half-maximal inhibition (IC50) in assay [1] and in assay [2] were 164 nM and 12400 nM, respectively. Further, in assay [3], the “Stability (T1/2 (h))” value was 0.4 h.
`CC[C@H](C)[C@H](NC(=O)[C@H](CC(N)=O)NC(=O)[C@@H](NC(=O)[C@H](CC(=O)O)NC(=O)[C@H](CCCCN)NC(=O)[C@@H]1CCCN1C(=O)[C@@H](N)CCSC)C(C)C)C(=O)N[C@@H](CCC(N)=O)C(=O)N[C@H](C(=O)O)C(C)C`: the concentration for half-maximal inhibition (IC50) in assay [4] is 12.5 nM.
Take `CSCC[C@H](NC(=O)[C@H](CC(C)C)NC(=O)[C@H](CCC(N)=O)NC(=O)[C@@H](N)CCSC)C(=O)N1CCC[C@H]1C(=O)N[C@@H](Cc1ccccc1)C(=O)NCC(=O)N[C@@H](CS)C(=O)N[C@@H](CC(C)C)C(=O)N[C@@H](CC(C)C)C(=O)O`: in assay [1], the pKd was 7.79 and the 50% inhibitory concentration (IC50) stood at 20 nM. Moreover, the IC50 in assay [2] is 23600 nM. In assay [3], the “Stability (half-life (hr.))” value worked out at 22.87 min and the “Stability (T1/2 (h))” value is 0.4 h.
For the compound `CC[C@H](C)[C@H](NC(=O)[C@@H](NC(=O)[C@H](CC(C)C)NC(=O)[C@@H](NC(=O)[C@@H]1CCCN1C(=O)[C@H](CCCNC(=N)N)NC(=O)[C@H](CCCNC(=N)N)NC(=O)[C@H](CC(N)=O)NC(=O)[C@H](CCSC)NC(=O)[C@@H](N)CO)[C@@H](C)CC)[C@@H](C)O)C(=O)O`, the values for the IC50 in assay [1] and in assay [2] were 1200 nM and 16300 nM, respectively. The “Stability (T1/2 (h))” value in assay [3] was determined as 0.3 h.
Turning to `CC[C@H](C)[C@H](NC(=O)[C@@H]1CCCN1C(=O)[C@H](Cc1ccccc1)NC(=O)[C@H](Cc1ccccc1)NC(=O)[C@H](CCCNC(=N)N)NC(=O)[C@H](C)NC(=O)[C@H](CC(C)C)NC(=O)[C@H](CCC(N)=O)NC(=O)[C@@H](N)[C@@H](C)O)C(=O)O`, the IC50 came out at 19 nM in assay [1] and 52 nM in assay [2].
Consider `CC[C@H](C)[C@H](NC(=O)[C@H](CC(C)C)NC(=O)[C@H](CCC(N)=O)NC(=O)[C@@H](N)C(C)C)C(=O)N[C@@H](CCSC)C(=O)N[C@@H](CCC(N)=O)C(=O)N[C@@H](CC(C)C)C(=O)N[C@@H](CCSC)C(=O)N1CCC[C@H]1C(=O)N[C@@H](Cc1ccccc1)C(=O)O`, for which, in assay [1], the pKd was 5.31 and the IC50 amounted to 5490 nM. Moreover, the concentration for half-maximal inhibition (IC50) in assay [2] stood at 4560 nM.
In assay [4], `CC(C)[C@H](NC(=O)[C@H](C)NC(=O)[C@@H]1CCCN1C(=O)[C@@H](NC(=O)[C@H](CCCNC(=N)N)NC(=O)[C@H](C)NC(=O)[C@@H]1CCCN1C(=O)[C@@H]1CCCN1C(=O)CN)C(C)C)C(=O)O` (H-GPPARVPAV-OH; N-terminus and C-terminus assumed) gave a pIC50 of 6.66.
`C[C@H](NC(=O)[C@H](C)NC(=O)[C@H](CCCNC(=N)N)NC(=O)[C@@H]1CCCN1C(=O)[C@@H]1CCCN1C(=O)[C@H](CCCNC(=N)N)NC(=O)[C@@H]1CCCN1C(=O)[C@@H]1CCCN1C(=O)CN)C(=O)N[C@@H](CS)C(=O)O` (H-GPPRPPRAAC-OH; N-terminus and C-terminus assumed): the concentration for half-maximal inhibition (IC50) in assay [4] is 48.6 nM.
As to `CC(C)C[C@H](NC(=O)[C@@H](NC(=O)[C@H](CO)NC(=O)[C@@H]1CCCN1C(=O)[C@H](CC(C)C)NC(=O)[C@H](Cc1ccccc1)NC(=O)[C@@H](NC(=O)[C@H](Cc1ccc(O)cc1)NC(=O)[C@@H](NC(=O)CN)C(C)C)[C@@H](C)O)[C@@H](C)O)C(=O)O` (H-GVYTFLPSTL-OH; N-terminus and C-terminus assumed), the IC50 worked out at 1200 nM in assay [1] and 7700 nM in assay [2]. The “Stability (T1/2 (h))” value in assay [3] is reported as 0.4 h.
Turning to `CC[C@H](C)[C@H](NC(=O)[C@H](Cc1ccc(O)cc1)NC(=O)[C@H](CC(C)C)NC(=O)[C@@H](N)CC(C)C)C(=O)N[C@H](C(=O)N[C@@H](C)C(=O)N[C@@H](Cc1ccccc1)C(=O)N[C@@H](Cc1ccccc1)C(=O)N[C@@H](CC(C)C)C(=O)N[C@@H](CC(C)C)C(=O)O)[C@@H](C)O` (H-LLYITAFFLL-OH; N-terminus and C-terminus assumed), the concentration for half-maximal inhibition (IC50) was determined as 323 nM in assay [1] and 60.1 nM in assay [2].
`CC[C@H](C)[C@H](NC(=O)[C@@H](NC(=O)[C@@H](NC(=O)[C@H](CC(C)C)NC(=O)[C@@H](NC(=O)[C@@H]1CCCN1C(=O)[C@H](CCCNC(=N)N)NC(=O)[C@H](Cc1c[nH]c2ccccc12)NC(=O)[C@H](CC(N)=O)NC(=O)[C@@H](N)CCSC)[C@@H](C)CC)[C@@H](C)O)[C@@H](C)CC)C(=O)O` (H-MNWRPILTII-OH; N-terminus and C-terminus assumed): the concentration for half-maximal inhibition (IC50) in assay [1] came out at 1030 nM; in assay [2], 44900 nM. Also, the “Stability (T1/2 (h))” value in assay [3] was 0.4 h.
For `CSCC[C@H](NC(=O)[C@@H](N)CCCNC(=N)N)C(=O)N1CCC[C@H]1C(=O)N1CCC[C@H]1C(=O)N[C@@H](CS)C(=O)N[C@@H](CC(C)C)C(=O)N[C@@H](C)C(=O)N[C@@H](CC(N)=O)C(=O)N[C@@H](Cc1ccccc1)C(=O)O` (H-RMPPCLANF-OH; N-terminus and C-terminus assumed), the IC50 in assay [2] came out at 8.7 nM.
For `CSCC[C@H](NC(=O)[C@H](CCCNC(=N)N)NC(=O)[C@@H](N)CCCNC(=N)N)C(=O)N1CCC[C@H]1C(=O)N1CCC[C@H]1C(=O)N[C@@H](CS)C(=O)N[C@@H](CC(C)C)C(=O)N[C@@H](C)C(=O)N[C@@H](CC(N)=O)C(=O)N[C@@H](Cc1ccccc1)C(=O)O` (H-RRMPPCLANF-OH; N-terminus and C-terminus assumed), the concentration for half-maximal inhibition (IC50) in assay [2] stood at 141 nM.
On to `CC[C@H](C)[C@H](NC(=O)[C@H](CC(=O)O)NC(=O)[C@H](Cc1ccccc1)NC(=O)[C@H](CC(C)C)NC(=O)[C@@H](NC(=O)[C@H](CCC(=O)O)NC(=O)[C@@H](NC(=O)[C@H](CCSC)NC(=O)[C@@H](N)Cc1c[nH]c2ccccc12)[C@@H](C)O)[C@@H](C)O)C(=O)O` (H-WMTETLFDI-OH; N-terminus and C-terminus assumed), for which the IC50 was determined as 14 nM in assay [1] and 713 nM in assay [2]. The “Stability (T1/2 (h))” value in assay [3] worked out at 4 h.
